These results are taken from US8133864B2, “PAR-2 agonist” (Kowa Company, Ltd., priority 2005, dated 2012).

For experiment [1], the target named is T1, PAR-2 (Homo sapiens, UniProt P55085).
T1 sequence (P55085 26-397): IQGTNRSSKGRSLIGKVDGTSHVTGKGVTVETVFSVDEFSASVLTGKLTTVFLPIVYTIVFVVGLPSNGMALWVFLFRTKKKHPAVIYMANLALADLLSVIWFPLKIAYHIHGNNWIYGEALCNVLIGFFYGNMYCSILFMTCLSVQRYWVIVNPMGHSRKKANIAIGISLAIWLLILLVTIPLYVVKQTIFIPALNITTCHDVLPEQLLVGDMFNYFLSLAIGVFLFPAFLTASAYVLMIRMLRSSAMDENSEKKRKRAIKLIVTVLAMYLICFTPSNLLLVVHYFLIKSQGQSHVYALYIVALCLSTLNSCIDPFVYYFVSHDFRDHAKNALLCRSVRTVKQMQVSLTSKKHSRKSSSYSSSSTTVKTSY
The experiment is described as follows: PAR-2 agonist-mediated intracellular calcium dynamics assay in HCT-15 cells (modified method of Howthorne et al.). The format is cell-based. Further details: HCT-15 cells, human colorectal cancer cell lines endogenously expressing high level of PAR-2; endogenous in cells; host or cells: HCT-15 human colorectal cancer cells. The settings on record: for EC50: HCT-15 cells endogenously expressing PAR-2, Ca2+ sensitive fluorescent dye, 2.5 mM probenecid, serum-free RPMI. From the text:
The PAR-2 activation of peptide derivatives represented by the general formula (1) can be tested by various known methods. For example, the method of Hollenberg (Hollenberg, M.D., et al., Can. J. Physiol. Pharmacol., 75, 832-841(1997)), the method of Kawabata et al. (Kawabata, A., et al., J. Pharmacol. Exp. Ther., 288, 358-370(1999)), the method of Howthorne et al. (Howthorne et al., A High-Throughput Microtiter Plate-Based Calcium Assay for the Study of Protease-Activated Receptor 2 Activation, Analytical Biochemistry 290, 378-379(2001)), and the like can be used. The present inventors tested PAR-2 activation potency by using the modified method of Howthorne et al. More specifically the method is for assaying calcium dynamics in a cell expressing human PAR-2 intracellularly. In this assay, PAR-2 agonist mediated calcium dynamics (concentration variability) in a cell is measured by using a multiple-well plate reader wherein the cell has Ca^2+ sensitive fluorescent dye introduced and stimulated by PAR-2 agonist under probenecid, which inhibits anion-exchange transporter, present. HCT-15 cells, human colorectal cancer cell lines endogenously expressing high level of PAR-2, were plated in a black-wall clear-bottom 96 well plate. Subconfluent cells were labeled with Ca^2+ sensitive fluorescent dye (Calcium Assay Reagent, Molecular Devices) in a RPMI culture medium in the presence of 2.5 mM probenecid absence of serum, and incubated for 1 hour at 37 ° C. Thereafter, the cells were stimulated with test compounds at various concentrations, and fluorescence change was measured using a scanning fluorometer (Flex Station, Molecular Devices) using excitation wavelength of 485 nm and fluorescence wavelength of 525 nm (cut-off wavelength of 515 nm). As a comparative compound, SLIGKV(SEQ ID: NO 1) —OH which is known as PAR-2 activated peptide was used. The results are shown in TAB.1.
On the technique in general: Calcium assays in cells follow changes in intracellular calcium, usually with a dye or a luminescent sensor.

The target of experiment [2] is T1, PAR-2. As to conditions: relative to TRAP (tethered receptor agonist peptide); cited from earlier work.

Where a name gives a salt, the structure may show the parent alone.

Broadly, the EC50 is the concentration needed to bring the measured effect to its halfway point. In the case of `O=C(CNC(=O)[C@H](CC1CCCCC1)NC(=O)c1ccco1)NCC(=O)N[C@@H](CCCN1CCCCC1)C(=O)NCc1ccccc1` [Example 1, (S)-2-[(2-furoyl)-β-cyclohexyl-L-alanyl-glycyl-glycyl-amino]-5-(1-piperidinyl)pentanoic acid benzyl amide], the concentration for a half-maximal effect (EC50) at PAR-2 [1] amounted to 2.3 ± 0.3 µM. Further, the “agonist activity against PAR-2 (result in words; comparator not given, presumably the comparison compound)” value at PAR-2 [1] (HCT-15 cells, calcium assay) was “higher agonist activity”.
As to `O=C(CNC(=O)[C@H](CC1CCCCC1)NC(=O)c1ccco1)NCC(=O)N[C@@H](CCCN1CCCCC1)C(=O)NCCN1CCCCC1` [Example 2, (S)-2-[(2-furoyl)-β-cyclohexyl-L-alanyl-glycyl-glycyl-amino]-5-(1-piperidinyl)pentanoic acid N-[2-(1-piperidinyl)ethyl] amide dihydrochloride], at PAR-2 [1], the 50% effective concentration (EC50) was determined as 4.1 ± 0.4 µM.
For Nα-benzoyl-Arg (NO2)-Leu-NH2, the “intensity to activate PAR-2 relative to TRAP” value on PAR-2 [2] is “about 1/100”.
